Measured values reported in PubChem BioAssay AID2060350 (Molecular Pharmacology Branch, DTP, NCI, 2025).

System: PDC 521955-158-R6-J3 spheroids, viability
Test: Anticancer human tumor 521955-158-R6-J3-PDC patient-derived pancreatic carcinoma cell line growth inhibition [TAK]
Conditions: spheroids with HUVEC and MSC; for IC50: curve of first compound; for viability, T/C: stronger effect = lower value
From the text: Combinatorial screen of targeted agents with TAK-243 and ipatasertib in multi-cell type tumor spheroids
A high-throughput screen of multi-cell type tumor spheroids was designed to identify active combinations of targeted small molecules and TAK-243 or ipatasertib. Complex spheroids include a stromal component modeled by human endothelial cells (HUVEC) and fibroblasts modeled by human mesenchymal stem cells (MSCs). The concentration ranges selected for each drug and investigational agent were based upon clinically achievable concentrations if the clinical Cmax of the agent was known.
Compounds. The drugs and investigational agents: TAK-243 (785004), ipatasertib (767898), everolimus (733504), selumetinib (741078), bortezomib (756655), trametinib (758246), ixazomib (758254), vemurafenib (761431), dabrafenib (764134), sapanisertib (764658), alpelisib (765974), and copanlisib (816437), were obtained from the National Cancer Institute (NCI) Developmental Therapeutics Program Chemical Repository. The FDA-approved anticancer drug set is available from the NCI Developmental Therapeutics Program. […] The stock solutions were prepared in dimethyl sulfoxide (DMSO, Sigma-Aldrich, St. Louis, MO, cat. D2650) at 800-fold the tested concentration and stored at -70 degrees C prior to their use. All drugs and investigational agents were tested over a range starting from a high concentration at or near the clinical Cmax and decreasing in half-log increments. If the clinical Cmax for an agent had not been determined, the highest concentration tested was 10 microM.
NCI60 Cell Culture. NCI60 cell lines were obtained from the NCI Developmental Therapeutics Program Tumor Repository. For each lot of cells, the Repository performed Applied Biosystems AmpFLSTR Identifiler testing with PCR amplification to confirm consistency with the published Identifier STR profile for each cell line. Cells were kept in continuous culture for no more than 20 passages. The optimal seeding densities for each of the cell lines at each time point assessed were determined prior to performing the concentration response studies. Briefly, the NCI60 human tumor lines were grown as monolayers in RPMI 1640 medium supplemented with 10% FBS and 2 mmol/L L-glutamine.
An additional 2 lines were from the NCI60 cell line panel including melanomas, MALME-3M and SK-MEL-2. Pooled donor human umbilical vein endothelial cells (HUVEC, Lonza, cat. CC-2519) and human mesenchymal stem cells (hMSC, Lonza, cat. PT-2501) were purchased from Lonza (Walkersville, MD).
PDMR cell lines were grown in complete medium (DC medium): Dulbecco's modified Eagle's medium (DMEM)/F12 supplemented with 5% fetal bovine serum (FBS), 2 mM L-glutamine, 100 U/mL penicillin and 100 µg/ml streptomycin, 0.4 µg/ml hydrocortisone, 10 ng/ml epidermal growth factor (EGF) recombinant human protein, 24 µg/mL adenine, and 0.1 mg/mL primocin. During culture from frozen stock vials, PDMR cells were cultured in the same medium containing 10 µM Y-27632 (see Table 3). The PDCs were cultured in complete DMEM/F12 media without 10 microM Y-27632 dihydrochloride for at least two passages prior to the screen. The pooled donor HUVEC and hMSC were cultured in endothelial cell growth medium 2 (PromoCell, Heidelberg, Germany, cat. C-22011) and mesenchymal stem cell growth medium 2 (PromoCell, cat. C-28009), respectively. For all experiments, HUVEC and hMSC were used at passages </=5.
For the pre-screen, cell seeding densities were determined from a titration spanning the range from 5,000 to 313 cells per well. The mct-spheroids including 60% malignant cells, 25% HUVEC and 15% MSC dispensed as a mixture into U-bottom Ultra-Low Attachment 384-well plates (Corning, NY)
High-throughput Drug Combination Screening.
Prior to their inoculation into 384-well plates, malignant cells, HUVEC, and hMSC were removed from T flasks using TrypLE express (Thermo Fisher Scientific, cat. 12605036) and harvested by centrifugation for 5 min at 233 x g. […]
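Note: spheroids exposed to drugs for 7 days before readout.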
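Throughout, for viability, T/C: 100% = DMSO vehicle control viability.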

Question: With `CC(=O)Nc1cccc(-n2c(=O)n(C3CC3)c(=O)c3c(Nc4ccc(I)cc4F)n(C)c(=O)c(C)c32)c1` + CC(C)NCC(C(=O)N1CCN(c2ncnc3c2C(C)CC3O)CC1)c1ccc(Cl)cc1 as the molecule, how does the IC50 (second compound 0.3 µM) read?
Answer: 7.12 nM

Question: What about the IC50 (second compound 0.949 µM) of the same molecule?
Answer: 2.58 nM

Question: What about the IC50 (second compound 3 µM) of the same molecule?
Answer: 1.82 nM

Question: And the IC50 (second compound 9.49 µM)?
Answer: 2.3 nM

Question: What about the IC50 (second compound 30 µM) of the same molecule?
Answer: 1.64 nM

Question: And the viability, T/C (second compound 0.3 µM, first compound 94.9 pM)?
Answer: 79.6%

Question: What about the viability, T/C (second compound 0.3 µM, first compound 0.0003 µM) of the same molecule?
Answer: 75.7%

Question: What about the viability, T/C (second compound 0.3 µM, first compound 0.000949 µM) of the same molecule?
Answer: 67.9%

Question: And the viability, T/C (second compound 0.3 µM, first compound 0.003 µM)?
Answer: 58.8%

Question: What about the viability, T/C (second compound 0.3 µM, first compound 0.00949 µM) of the same molecule?
Answer: 46.8%

Question: What about the viability, T/C (second compound 0.3 µM, first compound 0.03 µM) of the same molecule?
Answer: 35.6%

Question: And the viability, T/C (second compound 0.949 µM, first compound 94.9 pM)?
Answer: 85.6%

Question: And the viability, T/C (second compound 0.949 µM, first compound 0.0003 µM)?
Answer: 73.7%

Question: What about the viability, T/C (second compound 0.949 µM, first compound 0.000949 µM) of the same molecule?
Answer: 58.5%

Question: What about the viability, T/C (second compound 0.949 µM, first compound 0.003 µM) of the same molecule?
Answer: 49%

Question: And the viability, T/C (second compound 0.949 µM, first compound 0.00949 µM)?
Answer: 38.3%

Question: What about the viability, T/C (second compound 0.949 µM, first compound 0.03 µM) of the same molecule?
Answer: 25.2%

Question: And the viability, T/C (second compound 3 µM, first compound 94.9 pM)?
Answer: 78.9%

Question: What about the viability, T/C (second compound 3 µM, first compound 0.0003 µM) of the same molecule?
Answer: 62.1%

Question: And the viability, T/C (second compound 3 µM, first compound 0.000949 µM)?
Answer: 54.4%

Question: What about the viability, T/C (second compound 3 µM, first compound 0.003 µM) of the same molecule?
Answer: 49%

Question: And the viability, T/C (second compound 3 µM, first compound 0.00949 µM)?
Answer: 37.6%

Question: And the viability, T/C (second compound 3 µM, first compound 0.03 µM)?
Answer: 22.2%

Question: And the viability, T/C (second compound 9.49 µM, first compound 94.9 pM)?
Answer: 77.9%

Question: And the viability, T/C (second compound 9.49 µM, first compound 0.0003 µM)?
Answer: 62.8%

Question: And the viability, T/C (second compound 9.49 µM, first compound 0.000949 µM)?
Answer: 53.1%

Question: And the viability, T/C (second compound 9.49 µM, first compound 0.003 µM)?
Answer: 53.4%

Question: And the viability, T/C (second compound 9.49 µM, first compound 0.00949 µM)?
Answer: 37.4%

Question: And the viability, T/C (second compound 9.49 µM, first compound 0.03 µM)?
Answer: 15.2%

Question: What about the viability, T/C (second compound 30 µM, first compound 94.9 pM) of the same molecule?
Answer: 71.9%

Question: And the viability, T/C (second compound 30 µM, first compound 0.0003 µM)?
Answer: 59.6%

Question: What about the viability, T/C (second compound 30 µM, first compound 0.000949 µM) of the same molecule?
Answer: 55.8%

Question: And the viability, T/C (second compound 30 µM, first compound 0.003 µM)?
Answer: 47.8%

Question: What about the viability, T/C (second compound 30 µM, first compound 0.00949 µM) of the same molecule?
Answer: 28.5%

Question: And the viability, T/C (second compound 30 µM, first compound 0.03 µM)?
Answer: 16.1%
